Patent US20130196000A1, “COMBINATION THERAPY INCLUDING ISOPHO[…], ANALOGS, OR SALTS THEREOF” (ZIOPHARM ONCOLOGY, INC., priority 2012, published 2013)

Experiment: Multicenter phase Ib open-label dose-escalation study of IPM-tris plus carboplatin/etoposide (PaCE): safety, DLT and MTD
Format: in vivo, human
Procedure: A multicenter phase I, open-label, dose-escalation study assessing the safety and efficacy of IPM-tris in combination with carboplatin (C) and etoposide (E) (PaCE regimen) in SCLC and in other cancers in which C+E is considered appropriate was conducted. Tumor responses were assessed by RECIST 1.1 and relevant tumor markers.
To be eligible, each subject met each of the following criteria: (i) age >18 years; (ii) subject with documentation of a malignancy scheduled to receive etoposide and carboplatin therapy (including, but not limited to testicular cancer, thymoma, ovarian cancer, osteosarcoma, non-small cell lung cancer, and small cell lung cancer); (iii) ECOG Performance Status of 0 or 1; (iv) adequate bone marrow, liver, and renal function, as assessed by the following laboratory requirements conducted within 14 days prior to dosing; and (v) subjects for whom there is no curative standard therapy.
IPM tris(hydroxymethyl)methylammonium salt (IPM-tris) was given by intravenous (IV) infusion over approximately 30 minutes on days 1, 2, and 3 of each 21 day cycle. Each IPM-tris infusion to a subject was completed within 1 hour (and not more than 90 minutes) of dose preparation in the IV bag. Etoposide was given by IV infusion over approximately 60 minutes on days 1, 2, and 3 of each 21 day cycle. Carboplatin was given by IV infusion over approximately 30 minutes on day 1 of each 21 day cycle.
Each vial of IPM-tris was reconstituted with 14.6% sodium chloride for Injection, to a final concentration of 50.0 mg per mL. If the 14.6% sodium chloride diluent was not available, sites used 5.0%, 5.7%, 8.5%, or 0.9% sodium chloride for injection as the reconstitution diluent according to the same reconstitution instructions. Other standard sodium chloride solutions commercially available in other countries can be used to reconstituted IPM-tris. The IV infusion of IPM-tris was completed within 2.5 hours of reconstitution in the vial.
The doses of IPM-tris, etoposide, and carboplatin for each subject were calculated by the pharmacist based on the dose level and the subject's body surface area (BSA) on the first day of each cycle. BSA was calculated using their Institutional guidelines for calculating BSA or, the calculation for BSA by the Mosteller formula was used (note: SQRT=square root): […]
The maximum tolerable dose (MTD) of IPM-tris when administered in combination with etoposide and carboplatin at fixed doses (90 mg/m^2 and AUC 4, respectively) was determined An additional dose cohort was also evaluated using an escalated dose level of etoposide (100 mg/m^2) in combination with the IPM-tris MTD and carboplatin (AUC 4). Once the recommended doses were determined, this combination regimen was further studied in subjects with small cell lung cancer.

SMILES: NC(CO)(CO)CO.O=P(O)(NCCCl)NCCCl [IPM-tris, IPM tris(hydroxymethyl)methylammonium salt]
- patients with dose limiting toxicity (neutropenic fever) (at 150 mg/m^2 of IPM-tris): one
- maximum tolerated dose of IPM-tris (in combination with etoposide 90 mg/m^2 and carboplatin AUC 4 (Cohort 2), IV days 1, 2, 3 of 21 day cycle): **Based on dose escalation cohorts completed prior to Amendment 6, the maximum tolerated dose of IPM-tris was determined to be 130 mg/m^2 when administered in combination with etoposide 90 mg/m^2 and carboplatin AUC 4 (Cohort 2).
- maximum tolerated dose of IPM-tris (in combination with etoposide 100 mg/m^2 and carboplatin AUC 4): 130 mg/m^2
- IPM-tris dosage found to result in DLT (in combination with etoposide and carboplatin): 150 mg/m^2/day
